From publication PMC4745926, “Absorption, Metabolism, and Excretion by Freely Moving Rats of 3,4-DHPEA-EDA and Related Polyphenols from Olive Fruits (Olea europaea)” (Journal of Nutrition and Metabolism, 2016)
“Also recorded” adds a separate entry of the source. Read-outs that look alike come from different tables or passages of the source.

Assay: Jugular vein plasma levels after intravenous administration in jugular vein cannulated, freely moving rats
Format: in vivo, Wistar ST rats
Conditions: for Cmax: analyte HT, at 5 min after intravenous administration, read-out: C max of HT in plasma
Procedure: SPF Wistar ST rats (6 weeks of age, male, 180 ± 20 g of body weight) were purchased from Japan SLC Inc. (Hamamatsu, Japan). The rats were housed in an air-conditioned room at 22 ± 2°C under cycles of 12 hours dark and 12 hours light and given free access to a commercial diet and water for a week. The rats were then fasted for over 16 hours before the experiments. The present study was approved by the Animal Care and Use Committee at Kagawa University, and the rat treatment conformed to the Rules of Animal Experiments at Kagawa University. After fasting, the rats were cannulated with a polyethylene tube (PE-50; 0.58 mm I.D., 0.965 mm O.D.) into the jugular vein, portal vein, or bile duct under anesthesia with isoflurane inhalation using a WP-SAA01 (LMS Co., Ltd., Tokyo, Japan). A small hole was made in the vein or duct using pointed scissors and cannulated with the polyethylene tube. After inserting the tube, it was fixed at the edge of the vein or duct. The jugular vein and portal vein cannulas penetrated under the skin and were then tied at the back of the rats, and the bile duct cannula was tied at the abdomen of the rats. Bile duct-cannulated rats were then restrained in a Bollman cage (Natsume Seisakusho Co., Ltd., Tokyo, Japan). Before further experiments, the rats were allowed to recover from anesthesia. 3,4-[…] (300 mg/kg body weight; 936.51 μmol/kg) dissolved in 50% polyethylene glycol aqueous solution was administered orally via a stomach tube to the portal vein cannulated rats. Blood samples (450 μL) were then collected using a heparinized syringe attached to the cannula before administration and 5, 15, 30, 60, 120, and 240 min after administration. Urine was also collected before administration and 0 to 2 h and 2 to 4 h after administration. For intravenous administration, 3,4-[…] (10 mg/kg; 31.22 μmol/kg) was injected into the jugular vein, and blood (450 μL) was collected using a heparinized syringe before administration and 5, 15, 30, 60, 120, and 240 min after administration via the jugular vein cannula. The blood (450 μL) collected was immediately cooled on ice and centrifuged at 15,000 rpm for 5 min at 4°C to obtain over 200 μL plasma. Urine was also collected before administration and 0 to 2 h and 2 to 4 h after administration. Bile was collected via the bile duct cannula before administration and 0 to 2 h and 2 to 4 h after intravenous administration. The collected plasma, urine, and bile were immediately stored in an ice box until further analyses. HT (oral administration: 100 mg/kg; 648.66 μmol/kg, intravenous administration: 10 mg/kg; 64.87 μmol/kg) and Ole (oral administration: 300 mg/kg; 555.02 μmol/kg, intravenous administration: 10 mg/kg; 18.50 μmol/kg) were investigated using the same method as described above. Metabolites were deconjugated by using β-glucuronidase (500 U) and sulfatase (50 U) in 50 μL 625 mM MOPS (pH 6.8), which was added to 200 μL of plasma, urine, or bile. The mixture was incubated for 45 min at 37°C and subjected to extraction using QuEChERS [33]. […] Shimadzu, Kyoto, Japan) equipped with a Shim-pack XR-ODS column (3.0 mm I.D. × 100 mm; Shimadzu, Kyoto, Japan) at 40°C with a mobile phase of 0.5% TFA-1% acetonitrile aqueous solution (A) and 0.5% TFA-75% acetonitrile aqueous solution (B). The elution conditions are described as follows: isocratic elution of 0% B was maintained for 4.0 min; linear gradient 0 to 4% B, 4.0-4.5 min; linear gradient 4.0-16.0% B, 4.5-16.0 min; linear gradient 16.0-100% B, 16.0-25.0 min; isocratic elution of 100% B, 25.0-26.0 min; and linear gradient 100 to 0% B, 26.0-26.1 min, with a flow rate of 0.5 mL/min. Injection volume was 50 μL. All eluted peaks were detected at 279 nm with a diode array detector (SPD-M20A; Shimadzu, Kyoto, Japan). The absorption of 3,4-[…], and Ole was evaluated by dose-normalized 4 h area under the curve (AUC0→4 h/Dose) and C max/Dose values (Table 2). […]

[1] = after intravenous administration, 10 mg/kg

AUC0→4 h-i.v./Dosei.v. (analyte HT in jugular vein plasma after intravenous administration) [μM·min·kg/μmol] | Cmax (10 mg/kg) [µM] | AUC0→4 h-i.v./Dosei.v. (analyte HVA in jugular vein plasma after intravenous administration) [μM·min·kg/μmol] | AUC0→4 h-i.v./Dosei.v. (analyte HVAOH in jugular vein plasma after intravenous administration) [μM·min·kg/μmol] | Other metabolites in plasma throughout the blood sampling (after intravenous administration of Ole, 10 mg/kg) | Time at which intact compound disappeared from the systemic circulation [1] | concentration at 5 min (male, Wistar ST, rat, plasma, after intravenous administration, 10 mg/kg, 18.50 μmol/kg, read-out: Ole detected in the plasma at 5 min) [µM] | Cmax (male, Wistar ST, rat, plasma, 10 mg/kg) [µM] | Compound | Detection of intact 3,4-DHPEA-EDA in plasma and hematocytes (jugular vein, after intravenous administration, 10 mg/kg, 31.22 μmol/kg, 10 mg/kg)
259.2 | ~131 | 22.4 | 56.0 |  |  |  |  | CC=C(C=O)C(CC=O)CC(=O)OCCc1ccc(O)c(O)c1 (stereo not shown) [3,4-DHPEA-EDA, 3,4-dihydroxyphenylethyl elenolate dialdehydic form] | not detected; also recorded: not observed
 |  |  |  | could not be detected | ≤ 60 min | 502 |  | C/C=C1/[C@H](O[C@@H]2O[C@H](CO)[C@@H](O)[C@H](O)[C@H]2O)OC=C(C(=O)OC)[C@H]1CC(=O)OCCc1ccc(O)c(O)c1 [Oleuropein, reference compound] | 
 |  |  |  |  | about 15 min |  | 1740 | OCCc1ccc(O)c(O)c1 [Hydroxytyrosol, 2-(3,4-dihydroxyphenyl) ethyl alcohol, reference compound] | 
